The MIC is the lowest concentration that inhibits growth of the organism. Read a high MIC as weaker potency. As a reminder, the ED50 is the dose that gives a 50% effect, or the effect in half of the subjects.

This is an account of results in ChEMBL document CHEMBL1147903, “Synthesis and antibacterial activity of oxazolidinones containing triazolyl group” (2007).

Common to all, as to format: functional
The subject of assay [1] is Staphylococcus epidermidis. Put plainly: Antibacterial activity against methicillin-resistant Staphylococcus epidermidis by microdilution broth method. For orientation: Broth dilution looks for growth in wells or tubes with falling amounts of substance.
Assay [2] concerns Staphylococcus aureus. Put plainly: Antibacterial activity against methicillin-susceptible Staphylococcus aureus by microdilution broth method.
A further assay concerns Enterococcus faecalis. The assay is described as follows: Antibacterial activity against Enterococcus faecalis by microdilution broth method.
The subject of assay [3] is Staphylococcus aureus. Put plainly: Antibacterial activity against methicillin-resistant Staphylococcus aureus by microdilution broth method.
For assay [4], the system named is Staphylococcus epidermidis. The assay is described as follows: Antibacterial activity against methicillin-susceptible Staphylococcus epidermidis by microdilution broth method.
A further assay has as its system Streptococcus pneumoniae. The assay is described as follows: Antibacterial activity against penicillin-resistant Streptococcus pneumoniae by microdilution broth method.
The test system of assay [5] is Staphylococcus aureus. The assay is described as follows: Antibacterial activity against methicillin-susceptible Staphylococcus aureus 04-5 infected po dosed KunMing mouse.
Assay [6] has as its system Staphylococcus aureus. The assay is described as follows: Antibacterial activity against methicillin-resistant Staphylococcus aureus BAA-42 infected po dosed KunMing mouse.
Assay [7] relates to Staphylococcus epidermidis. Put plainly: Antibacterial activity against methicillin-resistant Staphylococcus epidermidis 03427 infected po dosed KunMing mouse.

Structures are written as SMILES. ≈ marks a conversion by molar mass, not a printed value.

In the case of `Cc1ccc(S(=O)(=O)N2CCN(c3ccc(N4C[C@H](Cn5ccnn5)OC4=O)cc3F)CC2)cc1`, the MIC came to 2 mg/L (≈ 4 µM) in assay [1]; 1 mg/L (≈ 2 µM) against Staphylococcus aureus [2]; 2 mg/L (≈ 4 µM) in the assay on Enterococcus faecalis; 1 mg/L (≈ 2 µM) against Staphylococcus aureus [3]; 0.5 mg/L (≈ 0.999 µM) in [4]; 1 mg/L (≈ 2 µM) in the assay with Streptococcus pneumoniae.
In the case of `O=C1O[C@@H](Cn2ccnn2)CN1c1ccc(N2CCN(S(=O)(=O)c3cccs3)CC2)c(F)c1`, the MIC (in assay [1]; with Staphylococcus aureus [2]; with Enterococcus faecalis; in the assay with Staphylococcus aureus [3]; in assay [4]; in the assay with Streptococcus pneumoniae) was 1 mg/L (≈ 2.03 µM) in each case.
As to `O=C1O[C@@H](Cn2ccnn2)CN1c1ccc(N2CCN(S(=O)(=O)c3ccc(F)cc3F)CC2)c(F)c1`, the MIC in [1] was 1 mg/L (≈ 1.91 µM); against Staphylococcus aureus [2], 2 mg/L (≈ 3.83 µM); in the assay with Enterococcus faecalis, 2 mg/L (≈ 3.83 µM); in the assay on Staphylococcus aureus [3], 2 mg/L (≈ 3.83 µM); in assay [4], 1 mg/L (≈ 1.91 µM); against Streptococcus pneumoniae it was 2 mg/L (≈ 3.83 µM).
In the case of `COc1ccc(S(=O)(=O)N2CCN(c3ccc(N4C[C@H](Cn5ccnn5)OC4=O)cc3F)CC2)cc1`, the MIC is 2 mg/L (≈ 3.87 µM) in assay [1]; 1 mg/L (≈ 1.94 µM) in the assay with Staphylococcus aureus [2]; 2 mg/L (≈ 3.87 µM) in the assay with Enterococcus faecalis; 0.5 mg/L (≈ 0.968 µM) against Staphylococcus aureus [3]; 2 mg/L (≈ 3.87 µM) in assay [4]; 0.5 mg/L (≈ 0.968 µM) against Streptococcus pneumoniae.
Turning to `O=C1O[C@@H](Cn2ccnn2)CN1c1ccc(N2CCN(S(=O)(=O)c3ccccc3C(F)(F)F)CC2)c(F)c1`, the MIC is 2 mg/L (≈ 3.61 µM) in assay [1]; 1 mg/L (≈ 1.8 µM) against Staphylococcus aureus [2]; 2 mg/L (≈ 3.61 µM) in the assay with Enterococcus faecalis; 0.5 mg/L (≈ 0.902 µM) against Staphylococcus aureus [3]; 2 mg/L (≈ 3.61 µM) in [4]; 0.5 mg/L (≈ 0.902 µM) against Streptococcus pneumoniae.
Regarding `O=C1O[C@@H](Cn2ccnn2)CN1c1ccc(N2CCNCC2)c(F)c1`, the MIC in assay [1] was found to be 1 mg/L (≈ 2.89 µM); against Staphylococcus aureus [2], 1 mg/L (≈ 2.89 µM); in the assay on Enterococcus faecalis, 2 mg/L (≈ 5.77 µM); in the assay on Staphylococcus aureus [3], 1 mg/L (≈ 2.89 µM); in [4], 1 mg/L (≈ 2.89 µM); in the assay on Streptococcus pneumoniae, 1 mg/L (≈ 2.89 µM).
Regarding `O=C1O[C@@H](Cn2ccnn2)CN1c1ccc(N2CCN(S(=O)(=O)c3cccc(C(F)(F)F)c3)CC2)c(F)c1`, the MIC in assay [1] is 0.5 mg/L (≈ 0.902 µM); against Staphylococcus aureus [2], 0.06 mg/L (≈ 0.108 µM); against Enterococcus faecalis, 0.03 mg/L (≈ 0.0541 µM); with Staphylococcus aureus [3], 0.06 mg/L (≈ 0.108 µM); in assay [4], 0.06 mg/L (≈ 0.108 µM); against Streptococcus pneumoniae it was 0.015 mg/L (≈ 0.0271 µM).
Regarding `O=C1O[C@@H](Cn2ccnn2)CN1c1ccc(N2CCN(S(=O)(=O)c3ccc(C(F)(F)F)cc3)CC2)c(F)c1`, the MIC is 1 mg/L (≈ 1.8 µM) in [1]; 0.5 mg/L (≈ 0.902 µM) with Staphylococcus aureus [2]; 0.5 mg/L (≈ 0.902 µM) in the assay on Enterococcus faecalis; 1 mg/L (≈ 1.8 µM) in the assay with Staphylococcus aureus [3]; 0.5 mg/L (≈ 0.902 µM) in assay [4]; 0.5 mg/L (≈ 0.902 µM) against Streptococcus pneumoniae.
For the molecule `O=C1O[C@@H](Cn2ccnn2)CN1c1ccc(N2CCN(S(=O)(=O)c3ccc(Cl)cc3)CC2)c(F)c1`, the MIC in [1] was 0.5 mg/L (≈ 0.96 µM); against Staphylococcus aureus [2] it was 0.125 mg/L (≈ 0.24 µM); in the assay with Enterococcus faecalis, 0.25 mg/L (≈ 0.48 µM); in the assay with Staphylococcus aureus [3] it was 0.5 mg/L (≈ 0.96 µM); in [4], 0.5 mg/L (≈ 0.96 µM); with Streptococcus pneumoniae, 0.125 mg/L (≈ 0.24 µM).
As to `O=C1O[C@@H](Cn2ccnn2)CN1c1ccc(N2CCN(S(=O)(=O)c3cccc(F)c3)CC2)c(F)c1`, the ED50 in the assay with Staphylococcus aureus [5] is 55.1 mg/kg; in the assay with Staphylococcus aureus [6], above 100 mg/kg; in assay [7], above 100 mg/kg. Further, the MIC in [1] is 1 mg/L (≈ 1.98 µM); in the assay with Staphylococcus aureus [2] it was 0.001 mg/L (≈ 0.00198 µM); against Enterococcus faecalis, 0.004 mg/L (≈ 0.00793 µM); against Staphylococcus aureus [3], 0.25 mg/L (≈ 0.496 µM); in [4], 0.25 mg/L (≈ 0.496 µM); against Streptococcus pneumoniae it was 0.002 mg/L (≈ 0.00396 µM).
Consider `O=C1O[C@@H](Cn2ccnn2)CN1c1ccc(N2CCN(S(=O)(=O)c3ccc(F)cc3)CC2)c(F)c1`, for which the MIC amounted to 1 mg/L (≈ 1.98 µM) in assay [1]; 0.5 mg/L (≈ 0.991 µM) in the assay on Staphylococcus aureus [2]; 1 mg/L (≈ 1.98 µM) in the assay on Enterococcus faecalis; 1 mg/L (≈ 1.98 µM) against Staphylococcus aureus [3]; 0.5 mg/L (≈ 0.991 µM) in [4]; 0.5 mg/L (≈ 0.991 µM) against Streptococcus pneumoniae.
On to `O=C1O[C@@H](Cn2ccnn2)CN1c1ccc(N2CCN(S(=O)(=O)c3ccc([N+](=O)[O-])cc3)CC2)c(F)c1`, for which the MIC was 1 mg/L (≈ 1.88 µM) in assay [1]; 1 mg/L (≈ 1.88 µM) with Staphylococcus aureus [2]; 1 mg/L (≈ 1.88 µM) in the assay on Enterococcus faecalis; 1 mg/L (≈ 1.88 µM) in the assay on Staphylococcus aureus [3]; 1 mg/L (≈ 1.88 µM) in [4]; 0.5 mg/L (≈ 0.941 µM) in the assay with Streptococcus pneumoniae.
On to `N#Cc1ccc(S(=O)(=O)N2CCN(c3ccc(N4C[C@H](Cn5ccnn5)OC4=O)cc3F)CC2)cc1`, for which the MIC in [1] worked out at 2 mg/L (≈ 3.91 µM); in the assay on Staphylococcus aureus [2], 2 mg/L (≈ 3.91 µM); in the assay on Enterococcus faecalis, 4 mg/L (≈ 7.82 µM); with Staphylococcus aureus [3], 0.5 mg/L (≈ 0.977 µM); in assay [4], 2 mg/L (≈ 3.91 µM); in the assay with Streptococcus pneumoniae, 4 mg/L (≈ 7.82 µM).
`Nc1cccc(S(=O)(=O)N2CCN(c3ccc(N4C[C@H](Cn5ccnn5)OC4=O)cc3F)CC2)c1`: the ED50 (with Staphylococcus aureus [5]; in assay [7]) was above 100 mg/kg each time. Moreover, the MIC turned out to be 1 mg/L (≈ 1.99 µM) in assay [1]; 0.125 mg/L (≈ 0.249 µM) against Staphylococcus aureus [2]; 0.25 mg/L (≈ 0.498 µM) against Enterococcus faecalis; 0.25 mg/L (≈ 0.498 µM) with Staphylococcus aureus [3]; 0.5 mg/L (≈ 0.997 µM) in [4]; 0.5 mg/L (≈ 0.997 µM) with Streptococcus pneumoniae.
`O=C1O[C@@H](Cn2ccnn2)CN1c1ccc(N2CCN(S(=O)(=O)c3ccccc3)CC2)c(F)c1`: the MIC in assay [1] turned out to be 2 mg/L (≈ 4.11 µM); against Staphylococcus aureus [2], 1 mg/L (≈ 2.06 µM); with Enterococcus faecalis, 2 mg/L (≈ 4.11 µM); in the assay on Staphylococcus aureus [3], 1 mg/L (≈ 2.06 µM); in assay [4] it was 0.5 mg/L (≈ 1.03 µM); against Streptococcus pneumoniae, 1 mg/L (≈ 2.06 µM).
For the molecule `O=C1O[C@@H](Cn2ccnn2)CN1c1ccc(N2CCN(S(=O)(=O)c3ccc(Br)cc3)CC2)c(F)c1`, the MIC in assay [1] was 4 mg/L (≈ 7.07 µM); against Staphylococcus aureus [2], 4 mg/L (≈ 7.07 µM); in the assay with Enterococcus faecalis, 2 mg/L (≈ 3.54 µM); against Staphylococcus aureus [3], 8 mg/L (≈ 14.1 µM); in assay [4], 8 mg/L (≈ 14.1 µM); against Streptococcus pneumoniae, 2 mg/L (≈ 3.54 µM).
As to `O=C1O[C@@H](Cn2ccnn2)CN1c1ccc(N2CCN(S(=O)(=O)c3cccc([N+](=O)[O-])c3)CC2)c(F)c1`, the results for the ED50 (with Staphylococcus aureus [5]; in the assay on Staphylococcus aureus [6]; in [7]) were 55.1 mg/kg, above 100 mg/kg and 84.3 mg/kg, respectively. In addition, the MIC in assay [1] was 0.5 mg/L (≈ 0.941 µM); against Staphylococcus aureus [2], 0.06 mg/L (≈ 0.113 µM); against Enterococcus faecalis, 0.03 mg/L (≈ 0.0564 µM); against Staphylococcus aureus [3], 0.06 mg/L (≈ 0.113 µM); in [4], 0.06 mg/L (≈ 0.113 µM); in the assay on Streptococcus pneumoniae, 0.015 mg/L (≈ 0.0282 µM).
For the molecule `O=C(OCc1ccccc1)N1CCN(c2ccc(N3C[C@H](Cn4ccnn4)OC3=O)cc2F)CC1`, the MIC was determined as 0.5 mg/L (≈ 1.04 µM) in assay [1]; 0.25 mg/L (≈ 0.52 µM) against Staphylococcus aureus [2]; 0.5 mg/L (≈ 1.04 µM) in the assay with Enterococcus faecalis; 0.5 mg/L (≈ 1.04 µM) in the assay with Staphylococcus aureus [3]; 1 mg/L (≈ 2.08 µM) in [4]; 0.5 mg/L (≈ 1.04 µM) in the assay with Streptococcus pneumoniae.
For the molecule `O=C1O[C@@H](Cn2ccnn2)CN1c1ccc(N2CCN(S(=O)(=O)c3ccccc3[N+](=O)[O-])CC2)c(F)c1`, the MIC came out at 1 mg/L (≈ 1.88 µM) in assay [1]; 0.5 mg/L (≈ 0.941 µM) in the assay on Staphylococcus aureus [2]; 0.5 mg/L (≈ 0.941 µM) in the assay with Enterococcus faecalis; 1 mg/L (≈ 1.88 µM) in the assay with Staphylococcus aureus [3]; 0.5 mg/L (≈ 0.941 µM) in assay [4]; 0.5 mg/L (≈ 0.941 µM) in the assay on Streptococcus pneumoniae.
With `CC(=O)NC[C@H]1CN(c2ccc(N3CCOCC3)c(F)c2)C(=O)O1` [LINEZOLID], the ED50 with Staphylococcus aureus [5] turned out to be 24 mg/kg; with Staphylococcus aureus [6] it was 17.9 mg/kg; in [7], 84.8 mg/kg. In addition, the MIC in [1] was 0.5 mg/L (≈ 1.48 µM); in the assay with Staphylococcus aureus [2], 0.125 mg/L (≈ 0.371 µM); against Enterococcus faecalis, 0.25 mg/L (≈ 0.741 µM); against Staphylococcus aureus [3], 1 mg/L (≈ 2.96 µM); in assay [4], 1 mg/L (≈ 2.96 µM); in the assay on Streptococcus pneumoniae it was 0.25 mg/L (≈ 0.741 µM).
For `CN[C@H](CC(C)C)C(=O)N[C@H]1C(=O)N[C@@H](CC(N)=O)C(=O)N[C@H]2C(=O)N[C@H]3C(=O)N[C@H](C(=O)N[C@H](C(=O)O)c4cc(O)cc(O)c4-c4cc3ccc4O)[C@H](O)c3ccc(c(Cl)c3)Oc3cc2cc(c3O[C@@H]2O[C@H](CO)[C@@H](O)[C@H](O)[C@H]2O[C@H]2C[C@](C)(N)[C@H](O)[C@H](C)O2)Oc2ccc(cc2Cl)[C@H]1O` [VANCOMYCIN], the MIC in assay [1] amounted to 0.25 mg/L (≈ 0.173 µM); with Staphylococcus aureus [2] it was 0.25 mg/L (≈ 0.173 µM); in the assay on Enterococcus faecalis, 0.25 mg/L (≈ 0.173 µM); in assay [4], 0.5 mg/L (≈ 0.345 µM); in the assay on Streptococcus pneumoniae, 0.25 mg/L (≈ 0.173 µM).
